Columns and labels:
B-RAF V600E = molecular target: T1, B-RAF V600E (Homo sapiens, UniProt P15056, V600E); assay: Target protein degradation, assay C: T-Rex 293 cells, HA-BRAF_V600E, 384 well format; assay type: cell-based; conditions: T-Rex 293 HA-BRAF_V600E cells, 24 hours, Examples 83-269; for Dmax: T-REx-293, Assay C
T1 construct: expressed in transfected cells; host or cells: T-Rex 293 cells (Invitrogen #R71007)
Description: C. T-Rex 293 Cells (384 Well Format)
(§1) T-Rex 293 cells were purchased from Invitrogen (#R71007), and stably transfected with a pcDNA4/TO_HA-BRAF_V600E construct, using 400 ug Zeocin for selection. V600E cells are plated in DMEM media (Gibco #11965118) containing 10% FBS (Gibco #16000044), 1% penicillin-streptomycin (ThermoFisher #15140122), 1:250 zeocin (Invitrogen #R-25005), and 1 ng/mL doxycycline (Selleckchem #4163) at a density of 7,500 cells/well in 45 μl on PDL coated, black clear bottom 384 well plates (Corning #354663) and incubated at 37° C.+5% CO2 for 24 hours. The following day, PROTAC compounds in a 1:3 11 point dilution are diluted into DMEM media using an Agilent Bravo. 5 ul of PROTACs suspended in DMEM media are added to the cells, with a final assay concentration ranging from 300 nM to 5 pM in 0.5% DMSO. Plates are incubated at 37° C.+5% CO2 for 24 hours. At the end of treatment, media is aspirated, and cells are fixed in 50 uL 4% PFA (EMS #15710) in PBS++(PBS, 1 mM CaCl, 1 mM MgCl) at RT for 15 minutes. Cells are washed 2× with 60 uL PBS++ and permeabilized in 50 uL 1% Triton X-100 (Sigma #93443) in PBS++ for 5 minutes at RT. Cells are washed in PBS++ prior to blocking with 50 uL Licor blocking buffer (Licor #927-60001) for 1 hour at RT. HA-tagged BRAF was stained using 50 uL HA antibody (CST #3724) at 1:1000 in Licor blocking buffer for two hours at RT. Primary is aspirated before adding 50 ul of secondary antibody solution containing 1:1000 Hoechst (ThermoFisher #62249), 1:1000 HCS CellMask Deep Red Stain (ThermoFisher #H32721), and 1:5000 goat anti-rabbit IgG Alexa-Fluor 488 (ThermoFisher #A32731) in PBS++ for 1 hr at RT. Plates are washed 4× with 60 uL PBS++, then sealed with Adhesive Black Light Absorbing Film (VWR #89087-692) and imaged on the ThermoFisher CX7 PRO high content instrument. BRAF intensity is quantified in HCS Studio software (ThermoFisher), using a custom script, exported, analyzed using KNIME, and curve curation is performed in an ELN (Scilligence). Cell toxicity is measured via comparing number of nuclei in PROTAC treated wells to DMSO controls.
(§2) The concentration of an exemplary compound that leads to half maximal degradation (DC50) as well as the maximum degradation observed (Dmax, conventionally expressed as a percentage of control) is shown below in Table 2.

B-RAF G466V = molecular target: T2, B-RAF G466V (Homo sapiens, UniProt P15056, G466V); assay: Target protein degradation, assay D: T-Rex 293 cells, HA-BRAF_G466V, 384 well format; assay type: cell-based; conditions: T-Rex 293 HA-BRAF_G466V cells, 24 hours, Examples 83-269; for DC50: Assay D; for Dmax: T-REx-293, Assay D
T2 construct: expressed in transfected cells; host or cells: T-Rex 293 cells (Invitrogen #R71007)
T2 sequence (P15056 whole entry G466V): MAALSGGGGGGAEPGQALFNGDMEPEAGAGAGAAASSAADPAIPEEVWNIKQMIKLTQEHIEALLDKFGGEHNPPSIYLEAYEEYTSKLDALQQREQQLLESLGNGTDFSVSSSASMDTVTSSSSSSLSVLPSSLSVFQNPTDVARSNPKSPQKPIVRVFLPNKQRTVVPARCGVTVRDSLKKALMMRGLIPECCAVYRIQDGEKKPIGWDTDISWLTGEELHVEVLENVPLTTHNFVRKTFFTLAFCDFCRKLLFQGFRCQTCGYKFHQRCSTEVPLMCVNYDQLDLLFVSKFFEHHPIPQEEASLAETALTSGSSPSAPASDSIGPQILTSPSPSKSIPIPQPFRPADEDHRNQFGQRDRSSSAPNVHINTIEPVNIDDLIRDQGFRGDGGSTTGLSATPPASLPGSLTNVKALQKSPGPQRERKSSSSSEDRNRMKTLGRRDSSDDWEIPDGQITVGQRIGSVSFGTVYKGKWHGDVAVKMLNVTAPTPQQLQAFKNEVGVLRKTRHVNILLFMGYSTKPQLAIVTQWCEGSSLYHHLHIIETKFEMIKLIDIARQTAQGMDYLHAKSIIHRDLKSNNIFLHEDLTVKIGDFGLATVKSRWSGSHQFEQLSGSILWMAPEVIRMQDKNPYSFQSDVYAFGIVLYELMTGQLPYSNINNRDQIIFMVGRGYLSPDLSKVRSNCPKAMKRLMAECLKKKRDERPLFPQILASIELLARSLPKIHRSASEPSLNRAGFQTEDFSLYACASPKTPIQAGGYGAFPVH
Description: D. T-Rex 293 Cells (384 Well Format)
as §1, with “pcDNA4/TO_HA-BRAF_G466V” for “pcDNA4/TO_HA-BRAF_V600E”, “G466V” for “V600E”
as §2

T1 sequence (P15056 whole entry V600E): as the sequence (P15056 whole entry G466V) above, with V466G, V600E counted along it

SMILES	DC50 (B-RAF V600E; Assay C) [nM]	Dmax (B-RAF V600E) [%]	DC50 (B-RAF G466V) [nM]	Dmax (B-RAF G466V) [%]	B-RAF V600E DMax (%) (B-RAF V600E; Assay C)
N#Cc1c(NS(=O)(=O)N2CC[C@@H](F)C2)ccc(F)c1Oc1ccc2ncn(-c3ccc(N4CCC(CN5CC6(CC(c7ccc8c(c7)C(=O)N(C7CCC(=O)NC7=O)C8=O)C6)C5)CC4)cc3)c(=O)c2c1 (stereo partly drawn) [Example 119, (3R)-N-{2-cyano-3-[(3-{4-[4-({6-[2-(2,6-dioxopiperidin-3-yl)-1,3-dioxo-2,3-dihydro-1H-isoindol-5-yl]-2-azaspiro[3.3]heptan-2-yl}methyl)piperidin-1-yl]phenyl}-4-oxo-3,4-dihydroquinazolin-6-yl)oxy]-4-fluorophenyl}-3-fluoropyrrolidine-1-sulfonamide]	> 500				
C[C@H]1CN(CC2CCN(c3ccc4c(c3F)CN([C@H]3CCC(=O)NC3=O)C4=O)CC2)CCN1c1ccc(-n2cnc3ccc(Oc4c(F)ccc(NS(=O)(=O)N5CC[C@@H](F)C5)c4C#N)cc3c2=O)cc1 [Example 117, (3R)-N-{2-cyano-3-[(3-(4-[(2S)-4-[(1-{2-[(3S)-2,6-dioxopiperidin-3-yl]-4-fluoro-1-oxo-2,3-dihydro-1H-isoindol-5-yl}piperidin-4-yl)methyl]-2-methylpiperazin-1-yl]phenyl}-4-oxo-3,4-dihydroquinazolin-6-yl)oxy]-4-fluorophenyl}-3-fluoropyrrolidine-1-sulfonamide]	50 to 500	35 to 70			
C[C@H]1CN(CC2CCN(c3ccc4c(c3F)CN([C@@H]3CCC(=O)NC3=O)C4=O)CC2)CCN1c1ccc(-n2cnc3ccc(Oc4c(F)ccc(NS(=O)(=O)N5CC[C@@H](F)C5)c4C#N)cc3c2=O)cc1 [Example 118, (3R)-N-{2-cyano-3-[(3-(4-[(2S)-4-[(1-{2-[(3R)-2,6-dioxopiperidin-3-yl]-4-fluoro-1-oxo-2,3-dihydro-1H-isoindol-5-yl}piperidin-4-yl)methyl]-2-methylpiperazin-1-yl]phenyl}-4-oxo-3,4-dihydroquinazolin-6-yl)oxy]-4-fluorophenyl}-3-fluoropyrrolidine-1-sulfonamide]	> 500				
Cc1cc(N2CCC(CN3CCN(c4ccc(-n5cnc6ccc(Oc7c(F)ccc(NS(=O)(=O)N8CC[C@@H](F)C8)c7C#N)cc6c5=O)cc4)CC3)CC2)c(F)c2c1C(=O)N(C1CCC(=O)NC1=O)C2 (single isomer, unassigned) [Example 121, (3R)-N-(2-cyano-3-{[3-(4-{4-[(1-{2-[(3R*)-2,6-dioxopiperidin-3-yl]-4-fluoro-7-methyl-1-oxo-2,3-dihydro-1H-isoindol-5-yl}piperidin-4-yl)methyl]piperazin-1-yl}phenyl)-4-oxo-3,4-dihydroquinazolin-6-yl]oxy}-4-fluorophenyl)-3-fluoropyrrolidine-1-sulfonamide]	50 to 500				B (35 < B < 70)
N#Cc1c(NS(=O)(=O)N2CC[C@@H](F)C2)ccc(F)c1Oc1ccc2ncn(-c3ccc(N4CCN(CC5CCN(c6ccc7c(c6)CN(C6CCC(=O)NC6=O)C7=O)CC5)CC4)s3)c(=O)c2c1 (stereo partly drawn) [Example 116, (3R)-N-{2-cyano-3-[(3-{5-[4-({1-[2-(2,6-dioxopiperidin-3-yl)-1-oxo-2,3-dihydro-1H-isoindol-5-yl]piperidin-4-yl}methyl)piperazin-1-yl]thiophen-2-yl}-4-oxo-3,4-dihydroquinazolin-6-yl)oxy]-4-fluorophenyl}-3-fluoropyrrolidine-1-sulfonamide]	50 to 500	≤ 35			

Second part, the compound after the results:

DC50 (B-RAF V600E; Assay C) [nM]	Dmax (B-RAF V600E) [%]	DC50 (B-RAF G466V) [nM]	Dmax (B-RAF G466V) [%]	B-RAF V600E DMax (%) (B-RAF V600E; Assay C)	SMILES
50 to 500	35 to 70	10 to 30	35 to 70		COCCN(CC1CCN(c2ccc(-n3cnc4ccc(Oc5c(F)ccc(NS(=O)(=O)N6CC[C@@H](F)C6)c5C#N)cc4c3=O)cc2)CC1)[C@H]1C[C@@H](Oc2ccc3c(c2)CN([C@H]2CCC(=O)NC2=O)C3=O)C1 [Example 267, (3R)-N-[2-cyano-4-fluoro-3-({3-[4-(4-{[(2-methoxyethyl)[(1r,3r)-3-({2-[(3S)-2,6-dioxopiperidin-3-yl]-1-oxo-2,3-dihydro-1H-isoindol-5-yl}oxy)cyclobutyl]amino]methyl}piperidin-1-yl)phenyl]-4-oxo-3,4-dihydroquinazolin-6-yl}oxy)phenyl]-3-fluoropyrrolidine-1-sulfonamide]
50 to 500	≤ 35	1 to 10	35 to 70		N#Cc1c(NS(=O)(=O)N2CC[C@@H](F)C2)ccc(F)c1Oc1ccc2ncn(-c3ccc(N4CC(CN5CCN(C6CCN(c7ccc8c(c7)CN(C7CCC(=O)NC7=O)C8=O)CC6)CC5)C4)cc3)c(=O)c2c1 (single isomer, unassigned) [Example 197, (3R)-N-[2-cyano-3-({3-[4-(3-{[4-(1-{2-[(3R*)-2,6-dioxopiperidin-3-yl]-1-oxo-2,3-dihydro-1H-isoindol-5-yl}piperidin-4-yl)piperazin-1-yl]methyl}azetidin-1-yl)phenyl]-4-oxo-3,4-dihydroquinazolin-6-yl}oxy)-4-fluorophenyl]-3-fluoropyrrolidine-1-sulfonamide]
50 to 500	35 to 70				CCN(C)S(=O)(=O)Nc1ccc(F)c(Oc2ccc3ncn(-c4ccc(N5CCC(CN6CCC(c7ccc8c(c7)CN(C7CCC(=O)NC7=O)C8=O)CC6)CC5)cc4)c(=O)c3c2)c1C#N (centres unmarked) [Example 115, 2-[(3-{4-[4-({4-[2-(2,6-dioxopiperidin-3-yl)-1-oxo-2,3-dihydro-1H-isoindol-5-yl]piperidin-1-yl}methyl)piperidin-1-yl]phenyl}-4-oxo-3,4-dihydroquinazolin-6-yl)oxy]-6-{[ethyl(methyl)sulfamoyl]amino}-3-fluorobenzonitrile]
5 to 50	≤ 35				Cc1cc(N2CCC(CN3CCN(c4ccc(-n5cnc6ccc(Oc7c(F)ccc(NS(=O)(=O)N8CC[C@@H](F)C8)c7C#N)cc6c5=O)cc4)CC3)CC2)c(F)c2c1C(=O)N(C1CCC(=O)NC1=O)C2 (single isomer, unassigned) [Example 120, (3R)-N-(2-cyano-3-{[3-(4-{4-[(1-{2-[(3R*)-2,6-dioxopiperidin-3-yl]-4-fluoro-7-methyl-1-oxo-2,3-dihydro-1H-isoindol-5-yl}piperidin-4-yl)methyl]piperazin-1-yl}phenyl)-4-oxo-3,4-dihydroquinazolin-6-yl]oxy}-4-fluorophenyl)-3-fluoropyrrolidine-1-sulfonamide]
